Laboratory results taken from ChEMBL document CHEMBL1126431, “The effect of N-acyl substituents on the stability of monocyclic -lactam inhibitors of human leukocyte elastase” (Bioorg Med Chem Lett, 1992).

Assays:
[1] = Half-life period was determined, by hydrolyzing under mild conditions (pH = 8.0, 25 degrees Celsius); format: ADME
Neutrophil elastase = biological target: T1, Neutrophil elastase (Homo sapiens, UniProt P08246); assay: Concentration required for inhibition of human leukocyte elastase (HLE)
T1 sequence (P08246 whole entry): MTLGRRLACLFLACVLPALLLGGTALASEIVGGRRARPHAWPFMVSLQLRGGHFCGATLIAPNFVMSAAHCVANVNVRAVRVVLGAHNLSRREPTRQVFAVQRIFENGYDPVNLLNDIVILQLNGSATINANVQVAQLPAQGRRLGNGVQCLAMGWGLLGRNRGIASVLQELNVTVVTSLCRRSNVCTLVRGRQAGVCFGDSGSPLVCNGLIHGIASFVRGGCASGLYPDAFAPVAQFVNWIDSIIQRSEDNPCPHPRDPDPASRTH

[2] = biological target: T2, Neutrophil elastase (Homo sapiens) (UniProt P08246); assay: Human leukocyte elastase (HLE) inhibitory activity is reported as kinetic constant (kobs/[I] - time dependent inhibition)
T2 sequence (whole entry): T1 sequence (P08246 whole entry)

half-life [1] | Ki (Neutrophil elastase) | k obs / 1 [2] | SMILES
~32 h | 290 µM |  | CC[C@@H]1C(=O)N[C@H]1Oc1ccc(C(=O)O)cc1
~9 h |  | 6680 M⁻¹ s⁻¹ | CC[C@@H]1C(=O)N(C(C)=O)[C@H]1Oc1ccc(C(=O)O)cc1
 | 16.5 µM |  | CC[C@@H]1C(=O)N(C(=O)NC)[C@H]1Oc1ccc(C(=O)O)cc1
 |  | 6350 M⁻¹ s⁻¹ | CCOC(=O)N1C(=O)[C@@H](CC)[C@@H]1Oc1ccc(C(=O)O)cc1
 |  | 2480 M⁻¹ s⁻¹ | CC[C@@H]1C(=O)N(C(=O)NCc2ccccc2)[C@H]1Oc1ccc(C(=O)O)cc1
~2 h |  |  | CC[C@@H]1C(=O)N(C(C)=O)[C@H]1OC(C)=O (racemic)
